Reference: patent US11560339B2, “Micronutrient foliar solutions” (KOCH AGRONOMIC SERVICES, LLC, priority 2019, dated 2023)

Key:
soybean plants [1] = assay: Fe foliar application trial, SPAD measurements; format: in vivo; conditions: foliar at V3 stage, Fe rate 0.616 mg/pot (Table 20), harvested after 1 week
Method: (§1) The plants were analyzed for leaf chlorophyll concentrations using a Soil Plant Analysis Development (“SPAD”) chlorophyll meter (SPAD 502 Plus Chlorophyll Meter, from Spectrum Technologies, Inc.), which enables an in situ, nondestructive technique. That is, not sample processing was required, and the tests were carried out on live plants. Readings were taken immediately before the first foliar treatment and again at 72 hours after the second foliar treatment, and the % SPAD increase of each sample was determined.
Thirty-six days after transplantation, the plants were harvested. SPAD measurements were taken as described Example 9. Fully grown youngest trifoliate and second youngest trifoliate were selected for these SPAD measurements. A total of nine readings were taken per trifoliate (3 per leaf).
(§2) Example 11 was exactly repeated except that instead of treating the soil with an iron solution by pipetting the solution at the time of transplantation, the plants were treated foliarly at V3 stage of growth and harvested 1 week after treatment. The SPAD, biomass, and iron uptake results can be found in Tables 24-26, respectively, while the Fe(III) reductase gene expression results can be found in FIG. 14.

soybean plants [2] = assay: Fe furrow application trial, iron uptake by ICP; format: in vivo; conditions: in furrow at transplanting, Fe rate 0.616 mg/pot, harvested at V3-stage
Method: (§3) Iron concentrations for the various plants were also determined and compared at the time of harvest, which was at least 3 days after the last treatment application. Again, each treatment had five replicates. All samples were washed in acetic acid and rinsed before being prepared for analysis by Inductively Coupled Plasma (“ICP”) Spectroscopy. Dried samples were combusted at 450° C. and extracted with concentrated hydrochloric acid, followed by analysis using ICP.
(§4) Alkaline soil having a pH of 7.9 was made by mixing air-dried Michigan topsoil (sieved) and fine sand (50:50, v/v). Next, 0.5% w/w calcium hydroxide was added to the soil-sand mixture and mixed well. Water was then added (15% v/v), and the pots were kept in that condition for a week to allow time for alkalinity fully develop. The pH was checked, and the soil was then added to 1-liter pots. There were thirty pots total, providing five replicates for each of the six treatments described below.
(§5) Soybean seeds (FS HISOY® Soybeans) were planted in trays filled with sieved topsoil. A base fertilizer comprising water solution made with urea (N), and monoammonium phosphate (P), and potassium sulfate (K) was applied to each tray before planting. The application rate was of 50-50-50 ppm NPK. Seedlings were irrigated with DI water. The trays were kept in a plant growth chamber so that each seedling received the same environmental exposure during growth.
(§6) Sixteen days after the seeds were planted as described in Part 2 of this Example, the seedlings were transplanted to the pots prepared in Part 1 of this Example. A fertilizer solution was prepared by mixing 16.67 g of Nova PeKacid® 0-60-20 (a phosphorus and potassium fertilizer, available from ICL Specialty Fertilizers), 13.33 g of SOP fertilizer, and 11.2 L of DI water. At the time of transplant, 56.5 mL of this fertilizer solution were added to each pot, and this same fertilizer solution application was repeated weekly until harvest.
(§7) A micronutrient fertilizer solution was prepared by mixing the compounds of Table 19 in 1 L of DI water. At the time of transplanting, 10 mL of this micronutrient fertilizer solution was added to each pot. This application was not repeated during the growth cycle.
(§8) Using a pipette, an iron test solution (comparative or Option 11 solution from Example 9—see Table 20) was applied about 1 cm below the soil surface, near each plant except for the negative control. This was the only iron test solution application.
(§9) All plants received about 100 mL of DI water every other day.
(§10) Iron uptake was determined using ICP as described in Example 9.

soybean plants [3] = assay: Fe furrow application trial, biomass measurements; format: in vivo; conditions: in furrow at transplanting, Fe rate 0.616 mg/pot, harvested at V3-stage
Method: (§11) One week after application, root and shoot masses were determined by drying the above- and below-ground biomass for 12 hours at […], then weighing each plant to the third decimal in grams.
as §4, §5, §6, §7, §8, §9
(§12) Shoot and root biomasses were also determined, following the procedure described in Example 7.

soybean plants [4] = assay: Fe foliar application trial, biomass measurements; format: in vivo; conditions: foliar at V3 stage, Fe rate 0.616 mg/pot (Table 20), harvested after 1 week
Method: as §11, §12, §2

soybean plants [5] = assay: Fe furrow application trial, SPAD measurements; format: in vivo; conditions: in furrow at transplanting, Fe rate 0.616 mg/pot, harvested at V3-stage
Method: as §1, §4, §5, §6, §7, §8, §9
Thirty-six days after transplantation, the plants were harvested. SPAD measurements were taken as described Example 9. […] A total of nine readings were taken per trifoliate (3 per leaf).

soybean plants [6] = assay: Fe foliar application trial, iron uptake by ICP; format: in vivo; conditions: foliar at V3 stage, Fe rate 0.616 mg/pot (Table 20), harvested after 1 week
Method: as §3, §10, §2

[7] = 75% by weight solution mixed with 25% by weight of a 50% phosphonate solution, room temperature, one week; FIG. 3
Method: The source of iron was iron(II) sulfate heptahydrate, the base utilized was Mg(OH)2, and the citric acid:malic acid ratio was 50:50. The ratio of metal:base:total acid was 4:4:3.
A comparative solution was prepared by mixing 75% of an iron sulfate solution with 25% of the same phosphonate, also under ambient conditions. The solutions were permitted to sit for one week to look for any unwanted precipitation (i.e., iron complexed with the phosphonate).

SMILES	Average SPAD value, second youngest trifoliate (old) (soybean plants [1])	Average SPAD value, youngest trifoliate (young) (soybean plants [1])	Average Fe uptake, root (soybean plants [2]) [μg/plant]	Average Fe uptake, shoot (soybean plants [2]) [μg/plant]	Root average dry biomass (soybean plants [3]) [g]	Shoot average dry biomass (soybean plants [3]) [g]	Root average weight/plant (dry biomass) (soybean plants [4]) [g]	Shoot average weight/plant (dry biomass) (soybean plants [4]) [g]	Average SPAD value, second youngest trifoliate (old) (soybean plants [5])	Average SPAD value, youngest trifoliate (young) (soybean plants [5])	Average Fe uptake, root (soybean plants [6]) [μg/plant]	Average Fe uptake, shoot (soybean plants [6]) [μg/plant]	extent of coordination complexing of iron (unwanted precipitation with phosphonate) [7]
O=S(=O)([O-])[O-].[Fe+2] [FeSO4, iron sulfate]	29.84	33.64	172.17	116.20	0.540	1.992	0.601	2.199	30.74	32.98	273.02	217.88	which was not the case
O=C([O-])CN(CCN(CC(=O)[O-])CC(=O)[O-])CC(=O)[O-].[Fe+3] [FeEDTA, iron chelated with EDTA]	32.74	32.06	183.64	188.92	0.650	2.276	0.661	2.514	37.94	39.12	246.69	348.28	
